Source: US20250066356A1, “LRRK2 INHIBITORS” (INTERLINE THERAPEUTICS, INC., priority 2022, published 2025)

Assays:
[1] = target: T1, phosphorylation at Ser935 on wild type LRRK2 overexpressed in recombinant HEK-293T cells (Homo sapiens, UniProt Q5S007); assay: pS935 LRRK2 Cell Assay (HTRF); assay type: cell-based; settings: LRRK2 inhibition; pS935 LRRK2 in transfected HEK293T cells, 2 hours compound incubation
T1 construct: host or cells: HEK293T, transient transfection
Description: The following protocol describes an in-vitro method for measuring phosphorylation at Ser935 on wild type LRRK2 overexpressed in recombinant HEK-293T cells. The method is based on HTRF technology, which combines Fluorescence Resonance Energy Transfer (FRET) with Time-Resolved measurement (TR). Phospho-LRRK2 (Ser935) is detected in a sandwich assay format using two different specific antibodies, one labelled with Eu^3+-Cryptate (donor) and the second with d2 (acceptor). When the fluorophores are in close proximity, excitation of the donor with a light source (flash lamp) stimulates FRET to the acceptor, which in turn fluoresces at a specific wavelength (665 nm). The fluorescence emission at 615 nm from the donor is also measured to allow ratiometric reduction of data. The specific signal is proportional to phospho-LRRK2 (Ser935).
Plasmid transient transfection: DMEM medium, FBS, DPBS, Trans-IT, OPTI-MEM reagents were allowed to warm to room temperature. HEK293T cells were cultured in DMEM+10% FBS complete medium in T150 flasks till around 80% confluency before transfection. Then cells were washed with 10 mL PBS and detached with 3 mL 0.25% typinsin. 30×10E6 HEK293T cells were seeded in DMEM+10% FBS complete medium to a 15 cm dish.
DNA, TransIT-LT1, OPTI-MEM complex were prepared: […] OPTI-MEM was added to a 15 mL cone tube, then […] plasmid was added to OPTI-MEM and mixed, followed by addition of 60 L TransIT-LT1 to the plasmid OPTI-MEM mixture and mixing. The resulting mixture was incubated for 15 minutes.
The above plasmid, DNA and OPTI-MEM mixture was added dropwise to the 15 cm dish, ensuring the drops were evenly distributed. The culture dish was gently rocked back and forth and from left to right to evenly distribute the complex. The transfected dish was incubated for 24 hours at 37° C., and 5% CO2.
Transfected HEK293T was collected in the 15 cm dish. Media was aspirated from tissue culture dish, and washed by dispensing 10 mL 1×DPBS into 15 cm dish. 1×DPBS was aspirated and 3 mL trypsin was dispensed to 15 cm dish. The dish was incubated with trypsin at room temperature for 3 min until the cells were detached. 10 mL of DMEM+10% FBS medium were added to 15 cm dish and triturated to ensure homogenous cell suspensions.
Homogenous cell suspensions were transferred to a 50 mL tube, and centrifuged for 5 minutes at 1,000 rmp/min. The supernatant was aspirated and resuspended with 20 mL complete medium. 1 mL of cell suspension was transferred for cell counting. The cell suspension was diluted to 2×10E5 cells/ml. 50 L cell suspensions were added to a 384-well plate. The plate was quick spun at 800 rpm for 1 minute, then incubate overnight at 37° C., 5% CO2.
Compound dispensing: compound was diluted (10 mM DMSO stock solution) and added to assay plate (top concentration: 10 μM, 3 fold serial dilution, 9 doses) with duplicates by Tecan liquid handler. The DMSO concentration of each well was normalized to 0.2%. Plates were quick spun at 1,000 rpm for 1 minute. Plates were incubated at 37° C., 5% CO2 for 2 hours.
1× lysis buffer solution supplemented with blocking reagent was prepared (e.g. 1 mL lysis buffer 4×+3 mL water+40 L stock blocking reagent 100×). Antibodies working solution was prepared by diluting 40-fold d2 and Cryptate antibodies with detection buffer (e.g. 1520 L detection buffer+40 L d2-antibody stock solution+[…] Cryptate-antibody stock solution).
After 2 hours incubation, cell plates were taken out from the incubator. Medium was removed by plate washer, then 16 µL of supplemented lysis buffer was added 1× to each well and incubated for 30 minutes at room temperature under shaking (800 rpm/min). 4 µL of antibodies working solution was added to each well, covered with a top seal and incubated overnight in 23° C. incubator.
HTRF signal was read (665 nm and 615 nm) on Wallac 2104 EnVision® multilabel reader. Data were analyzed by XL fit software.

LRRK2 wild type enzyme = LRRK2 wild type enzyme (Homo sapiens, UniProt Q5S007); assay: LRRK2 biochemical assay (LanthaScreen TR-FRET, LRRKtide substrate); settings: LRRK2 inhibition; 3 nM LRRK2, 400 nM LRRKtide, 25 μM ATP, 120 min, 23° C.
LRRK2 wild type enzyme, sequence (Q5S007 whole entry): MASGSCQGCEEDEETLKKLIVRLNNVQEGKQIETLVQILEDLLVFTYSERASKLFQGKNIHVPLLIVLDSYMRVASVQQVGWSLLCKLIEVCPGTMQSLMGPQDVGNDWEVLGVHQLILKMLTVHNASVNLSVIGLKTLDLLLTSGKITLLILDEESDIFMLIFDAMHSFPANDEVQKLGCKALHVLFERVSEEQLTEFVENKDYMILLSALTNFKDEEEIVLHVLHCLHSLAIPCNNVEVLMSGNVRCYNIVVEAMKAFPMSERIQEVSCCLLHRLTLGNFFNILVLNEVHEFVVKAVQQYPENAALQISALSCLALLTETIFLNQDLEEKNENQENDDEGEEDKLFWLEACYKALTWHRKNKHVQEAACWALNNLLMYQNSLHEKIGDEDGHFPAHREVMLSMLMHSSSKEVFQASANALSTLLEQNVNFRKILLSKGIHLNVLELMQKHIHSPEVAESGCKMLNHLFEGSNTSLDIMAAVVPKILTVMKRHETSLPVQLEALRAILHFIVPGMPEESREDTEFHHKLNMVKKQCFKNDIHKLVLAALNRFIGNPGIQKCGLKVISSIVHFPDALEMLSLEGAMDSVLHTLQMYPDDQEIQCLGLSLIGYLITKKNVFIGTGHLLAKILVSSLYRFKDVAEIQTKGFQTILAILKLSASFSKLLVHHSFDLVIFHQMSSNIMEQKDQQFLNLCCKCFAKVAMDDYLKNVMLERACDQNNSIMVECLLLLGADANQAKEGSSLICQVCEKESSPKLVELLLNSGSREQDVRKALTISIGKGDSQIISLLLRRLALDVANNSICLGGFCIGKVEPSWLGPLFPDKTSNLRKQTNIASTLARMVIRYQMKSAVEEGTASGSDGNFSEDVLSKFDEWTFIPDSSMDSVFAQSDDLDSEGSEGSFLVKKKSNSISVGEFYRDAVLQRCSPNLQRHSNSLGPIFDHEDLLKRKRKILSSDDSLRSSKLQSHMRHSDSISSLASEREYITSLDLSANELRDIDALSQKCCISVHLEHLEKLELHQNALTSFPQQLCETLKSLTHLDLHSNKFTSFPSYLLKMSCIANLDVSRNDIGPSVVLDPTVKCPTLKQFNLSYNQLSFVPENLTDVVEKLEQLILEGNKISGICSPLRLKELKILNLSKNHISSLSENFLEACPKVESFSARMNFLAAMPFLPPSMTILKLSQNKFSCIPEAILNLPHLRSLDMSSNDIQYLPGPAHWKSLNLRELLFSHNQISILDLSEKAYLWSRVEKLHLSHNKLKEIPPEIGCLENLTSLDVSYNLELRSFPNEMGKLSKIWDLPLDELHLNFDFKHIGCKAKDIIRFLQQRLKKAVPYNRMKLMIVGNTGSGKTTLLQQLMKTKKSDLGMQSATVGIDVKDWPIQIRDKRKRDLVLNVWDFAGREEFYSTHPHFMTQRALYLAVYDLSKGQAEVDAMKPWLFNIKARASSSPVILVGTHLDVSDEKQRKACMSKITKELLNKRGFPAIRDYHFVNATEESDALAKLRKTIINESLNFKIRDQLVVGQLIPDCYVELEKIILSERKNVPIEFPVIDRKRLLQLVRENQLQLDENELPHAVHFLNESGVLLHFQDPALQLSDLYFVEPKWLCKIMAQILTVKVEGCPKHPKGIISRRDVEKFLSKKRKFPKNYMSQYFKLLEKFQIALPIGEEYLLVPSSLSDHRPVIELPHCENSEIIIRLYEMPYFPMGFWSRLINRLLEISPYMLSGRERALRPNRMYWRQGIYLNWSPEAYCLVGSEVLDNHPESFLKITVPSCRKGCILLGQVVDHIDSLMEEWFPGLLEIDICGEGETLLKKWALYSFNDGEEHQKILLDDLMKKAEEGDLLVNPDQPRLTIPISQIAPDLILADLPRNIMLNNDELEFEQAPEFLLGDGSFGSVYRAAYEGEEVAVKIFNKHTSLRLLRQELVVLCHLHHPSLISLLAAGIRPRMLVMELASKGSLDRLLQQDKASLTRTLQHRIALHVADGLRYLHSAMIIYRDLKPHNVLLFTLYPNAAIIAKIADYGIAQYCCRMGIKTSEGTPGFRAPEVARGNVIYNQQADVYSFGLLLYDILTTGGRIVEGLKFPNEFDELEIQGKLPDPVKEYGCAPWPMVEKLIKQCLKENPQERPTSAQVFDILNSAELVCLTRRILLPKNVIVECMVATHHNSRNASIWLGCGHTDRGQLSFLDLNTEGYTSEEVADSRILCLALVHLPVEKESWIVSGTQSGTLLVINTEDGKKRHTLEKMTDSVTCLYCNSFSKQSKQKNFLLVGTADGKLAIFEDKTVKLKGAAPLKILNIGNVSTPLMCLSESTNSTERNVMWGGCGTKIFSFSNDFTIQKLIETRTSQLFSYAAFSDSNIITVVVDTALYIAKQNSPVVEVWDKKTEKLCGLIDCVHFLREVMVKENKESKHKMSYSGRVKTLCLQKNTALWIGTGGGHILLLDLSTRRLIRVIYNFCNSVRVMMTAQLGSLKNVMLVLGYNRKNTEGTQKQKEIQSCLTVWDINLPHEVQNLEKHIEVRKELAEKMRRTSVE
Description: 10 mM compound solution was prepared in DMSO. An 11-point, 3-fold dilution was performed, with highest concentration at 10 μM. A 10 mM compound DMSO solution was added to Labcyte LDV plate and the compound concentration of source plate was 10 mM. The 1 st compound concentration of Inter plate (Labcyte 384 well PP plate) was 4.938×10^−1 mM which was prepared by transferring 1.5 μL of 10 mM compound from source plate to 28.9 μL DMSO. The 2nd compound concentration of Inter plate was 1.829×10^−2 mM which was prepared by transferring 60 nL of 10 mM compound from source plate to 32.7 μL DMSO. The 3rd compound concentration of Inter plate was 6.774×10^−4 mM which was prepared by transferring 2.5 nL of 10 mM compound from source plate to 36.9 μL DMSO. 100 nL of reference compound was dispensed in column 1 for low control wells and 100 nL of DMSO in column 24 for high control wells. Compounds were dispensed to column 2 to 23 of assay plate and backfilled with DMSO to a total volume of 100 nL.
A 2×LRRK2 enzyme solution (final concentration 3 nM) was prepared in assay buffer (Tris-HCl pH8.0: 50 mM, MgCl2: 5 mM, EDTA: 1 mM, Brij-35: 0.01%, 2 mM DTT). A 2× substrate solution was prepared: LRRK2 tide substrate (final concentration 400 nM) and ATP (final concentration 25 μM) in assay buffer. 5 μL 2×LRRK2 enzyme solution was dispensed to each well in assay plate by Multidrop. Assay plate was spun at 1,000 rpm for 1 min and incubated for 15 min at 23° C. 5 μL 2×ATP/LRRKtide solution was dispensed to each well in assay plate by Multidrop. Assay plate was spun at 1,000 rpm for 1 min and incubated for 120 min at 23° C.
A 2× detection solution was prepared: Tb-pERM (pLRRKtide) antibody (final concentration 0.25 nM) and EDTA (final concentration 10 mM) in TR-FRET dilution buffer. 10 μL 2× detection solution was dispensed to each well in assay plate to stop kinase reaction by Multidrop. Assay plate was spun at 1,000 rpm for 1 min and incubate for 30 min at 23° C. Assay plate was then read on Envision configured for LanthaScreen® TR-FRET.

T1 sequence (Q5S007 whole entry): as above

SMILES	IC50 [1] [nM]	IC50 (LRRK2 wild type enzyme) [nM]
C[C@@H]1C[C@H](n2c(Cc3noc(=O)[nH]3)nc3cnc4ccc(C#N)cc4c32)CCO1 [Compound 14, 1-[(2R,4R)-2-methyloxan-4-yl]-2-[(5-oxo-4,5-dihydro-1,2,4-oxadiazol-3-yl)methyl]-1H-imidazo[4,5-c]quinoline-8-carbonitrile]	> 10000	7.84
C[C@@H]1C[C@H](n2c(Cc3noc(=O)[nH]3)nc3cnc4ccc(Cl)cc4c32)CCO1 [Compound 15, 3-({8-chloro-1-[(2R,4R)-2-methyloxan-4-yl]-1H-imidazo[4,5-c]quinolin-2-yl}methyl)-4,5-dihydro-1,2,4-oxadiazol-5-one]	> 10000	3.23
C[C@@H]1C[C@H](n2c(Cn3ccc(=O)c(C(=O)O)c3)nc3cnc4ccc(C#N)cc4c32)CCO1 [Compound 17, 1-({8-cyano-1-[(2R,4R)-2-methyloxan-4-yl]-1H-imidazo[4,5-c]quinolin-2-yl}methyl)-4-oxo-1,4-dihydropyridine-3-carboxylic acid]	2950	2.88
COC(=O)c1cn(Cc2nc3cnc4ccc(C#N)cc4c3n2[C@@H]2CCO[C@H](C)C2)ccc1=O [Compound 18, methyl 1-({8-cyano-1-[(2R,4R)-2-methyloxan-4-yl]-1H-imidazo[4,5-c]quinolin-2-yl}methyl)-4-oxo-1,4-dihydropyridine-3-carboxylate]	7020	2.64
COC(=O)c1cccn(Cc2nc3cnc4ccc(C#N)cc4c3n2[C@@H]2CCO[C@H](C)C2)c1=O [Compound 19, methyl 1-({8-cyano-1-[(2R,4R)-2-methyloxan-4-yl]-1H-imidazo[4,5-c]quinolin-2-yl}methyl)-2-oxo-1,2-dihydropyridine-3-carboxylate]	592	8.03
C[C@@H]1C[C@H](n2c(Cc3cn([C@H]4C[C@@H](S(C)(=O)=O)C4)nn3)nc3cnc4ccc(C#N)cc4c32)CCO1 [Compound 21]	1770	1.41
